Source: patent US20130171252A1, “Formulation Comprising a Type B Lantibiotic” (NOVACTA […], priority 2010, published 2013)
≈ marks a conversion by molar mass, not a printed value. Read-outs that look alike come from different tables or passages of the source.

What was measured:
[1] = Susceptibility to enzymatic digestion in simulated intestinal fluid (FIG. 1); assay type: in vitro ADME; details: 37° C., HPLC (FIG. 1)
Description: Nisin and the compound of compound 1 were tested for their susceptibility towards enzymatic digestion in the intestine using a simulated intestinal fluid (SIF). The SIF was based on the standard USP solutions for simulated intestinal fluids and its activity was confirmed against Bovine Serum Albumin (Hilger et al, Clin. Exp. Immunol. 2001, 123, 387-94). The compounds were incubated in SIF at 37° C. and their concentrations quantified by analytical HPLC (UV detection at 210 nm using the conditions outlined in Table 1).

[2] = Dissolution testing of the capsule of Example 1 in simulated gastric fluid; assay type: physicochemical; details: hard gelatine capsule size 00, 50 mg compound 1, 10 mL SGF, 37° C., stirred
Description: A hard gelatine capsule (size 00) was opened into two segments and compound 1 (50 mg) was weighed into the larger segment. The capsule segment containing compound 1 was sealed by inserting and closing the smaller segment over the larger capsule section. A hard gelatine capsule (size 00) containing up to 500 mg can be prepared employing this method.
The capsule of Example 1 was dropped into a 10 mL of simulated gastric fluid (SGF) at 37° C. […] Samples of the solution/suspension (100 μL) were withdrawn at 1, 2, 3, 4, 5, 6, 7, 8, 9, 10, 15, 20, 25, 30 and 70 minutes after the addition of the capsule to SGF.
The samples were clarified using a bench top centrifuge to remove solid from the suspension. The clarified supernatants were diluted with 50% ethanol and then were analysed by HPLC.

[3] = Example 2: solubility and dissolution behaviour from hard gelatin capsule in SGF; assay type: physicochemical; details: 50 mg in size 00 hard gelatin capsule, 10 mL SGF, 37° C.
Description: The solubility and dissolution behaviour of compound 1 contained in a hard gelatin capsule when suspended in simulated gastric fluid (SGF) has been monitored at 37° C.
Compound 1 (50 mg) was transferred into a size 00 hard gelatin capsule. This capsule represents the lowest dose that is likely to be administered in clinical trials. The capsule was dropped into 10 mL of SGF at 37° C. and the sample was intermittently swirled by hand. Dissolution was monitored visually and by HPLC over a one hour period. For the dissolution experiment monitored by HPLC, the sample was stirred continuously with a magnetic stirrer at 37° C. 100 ul samples were withdrawn from the dissolution experiment and were diluted with 900 ul water. The diluted sample was then centrifuged to remove solid material (mostly gelatin).

[4] = Example 3: solubility in SIF and SGF; assay type: physicochemical; details: target 40 mg/ml
Description: 10 mg of compound 1 was suspended in […] Simulated Intestinal Fluid (SIF), and was left on a shaker for 10 minutes, after which time suspension was observed. This was in contrast to an identical sample suspended in SGF which dissolved fully after the same period of time. This sample prepared at a target concentration of 40 mg/ml was centrifuged to remove sediment. The supernatant was then diluted to a target of 1 mg/ml with water and compound 1 content was compared against a 1 mg/mL standard prepared in 50% ethanol (aq) using a HPLC method of Example 2.

[5] = Example 4: stability in SIF over 240 minutes (FIG. 4); assay type: in vitro ADME; details: 37° C., HPLC
Description: Compound 1 was incubated in SIF at 37° C. for up to 240 minutes. Aliquots were withdrawn from the test sample and diluted with water prior to analysis by HPLC (as described in Example 2). The compound 1 peak area was recorded and was expressed as a percentage with respect to the time zero sample.

C. diff strain 027Can = experiment: MIC, agar dilution susceptibility testing, C. diff strain 027Can; assay type: cell-based, Clostridium difficile; details: Wilkins-Chalgren Anaerobe agar, anaerobic, 37° C., 48 hours, repeat determinations
Description: (§1) Susceptibility testing for Clostridium difficile strains was performed by two-fold serial antibiotic dilutions in Wilkins-Chalgren Anaerobe agar under anaerobic conditions. Vancomycin was included as a comparator drug. C. difficile cultures were inoculated onto pre-reduced Braziers (C.C.E.Y.) agar plates and grown at 37° C. for 48 hours under anaerobic conditions. Two to three colonies of the 48 hours cultures were inoculated into 5 ml of pre-reduced Schaedlers Broth and grown at 37° C. for 24 hours under anaerobic conditions. This culture was diluted with pre-reduced 0.9% NaCl to achieve the turbidity of the 0.5 McFarland standard and applied to the drug containing plates at a final inoculum of 10^5 cfu/spot. Drug-free growth control plates were included. The plates were incubated in the anaerobic chamber at 37° C. for 48 hours and examined for growth.

C. diff strain 37779 = experiment: MIC, agar dilution susceptibility testing, C. diff strain 37779; assay type: cell-based, Clostridium difficile; details: Wilkins-Chalgren Anaerobe agar, anaerobic, 37° C., 48 hours, repeat determinations
Description: as §1

C. diff strain 19126 = experiment: MIC, agar dilution susceptibility testing, C. diff strain 19126; assay type: cell-based, Clostridium difficile; details: Wilkins-Chalgren Anaerobe agar, anaerobic, 37° C., 48 hours, repeat determinations
Description: as §1

C. diff strain B32 = experiment: MIC, agar dilution susceptibility testing, C. diff strain B32; assay type: cell-based, Clostridium difficile; details: Wilkins-Chalgren Anaerobe agar, anaerobic, 37° C., 48 hours
Description: as §1

C. diff strain E16 = experiment: MIC, agar dilution susceptibility testing, C. diff strain E16; assay type: cell-based, Clostridium difficile; details: Wilkins-Chalgren Anaerobe agar, anaerobic, 37° C., 48 hours
Description: as §1

C. diff strain P24 = experiment: MIC, agar dilution susceptibility testing, C. diff strain P24; assay type: cell-based, Clostridium difficile; details: Wilkins-Chalgren Anaerobe agar, anaerobic, 37° C., 48 hours
Description: as §1

C. diff strain 027SM = experiment: MIC, agar dilution susceptibility testing, C. diff strain 027SM; assay type: cell-based, Clostridium difficile; details: Wilkins-Chalgren Anaerobe agar, anaerobic, 37° C., 48 hours
Description: as §1

C. diff strain P62 = experiment: MIC, agar dilution susceptibility testing, C. diff strain P62; assay type: cell-based, Clostridium difficile; details: Wilkins-Chalgren Anaerobe agar, anaerobic, 37° C., 48 hours
Description: as §1

C. diff strain E101 = experiment: MIC, agar dilution susceptibility testing, C. diff strain E101; assay type: cell-based, Clostridium difficile; details: Wilkins-Chalgren Anaerobe agar, anaerobic, 37° C., 48 hours
Description: as §1

C. diff strain E4 = experiment: MIC, agar dilution susceptibility testing, C. diff strain E4; assay type: cell-based, Clostridium difficile; details: Wilkins-Chalgren Anaerobe agar, anaerobic, 37° C., 48 hours
Description: as §1

C. diff strain P49 = experiment: MIC, agar dilution susceptibility testing, C. diff strain P49; assay type: cell-based, Clostridium difficile; details: Wilkins-Chalgren Anaerobe agar, anaerobic, 37° C., 48 hours
Description: as §1

C. diff strain P59 = experiment: MIC, agar dilution susceptibility testing, C. diff strain P59; assay type: cell-based, Clostridium difficile; details: Wilkins-Chalgren Anaerobe agar, anaerobic, 37° C., 48 hours
Description: as §1

C. diff strain 630 = experiment: MIC, agar dilution susceptibility testing, C. diff strain 630; assay type: cell-based, Clostridium difficile; details: Wilkins-Chalgren Anaerobe agar, anaerobic, 37° C., 48 hours, repeat determinations
Description: as §1

## CCC(C)[C@@H]1NC(=O)C2NC(=O)[C@H](CC(C)C)NC(=O)[C@H](NC(=O)[C@H]3CSC[C@H](N)C(=O)N[C@@H](CO)C(=O)NCC(=O)N[C@@H](Cc4c[nH]c5ccccc45)C(=O)N[C@@H](C(C)C)C(=O)N3)[C@H](C)SC[C@H](NC(=O)[C@H](CCC(=O)O)NC1=O)C(=O)NCC(=O)N[C@@H]1C(=O)N[C@@H](CC(C)C)C(=O)N[C@@H](C(C)C)C(=O)N[C@@H](CS[C@H]2C)C(=O)N[C@@H](C)C(=O)N[C@H](C(=O)NCCCCCCCN)CS[C@H]1C (stereo partly shown) [Compound 1, Deoxyactagardine B (1,7-diaminoheptane) monocarboxamide]
[1]
  stability in SIF: essentially stable
[2]
  time to complete release from the capsule into SGF: ≤ 4 min
[3]
  dissolution time in SGF: ≤ 3 min
  time in which the bulk dissolves in SGF: less than 5 minutes
[3]; HPLC (FIG. 3)
  time to reach saturation dissolution in SGF: 3 min
[4]; SGF, 10 minutes on shaker, read-out: solubility in SGF
  solubility at 10 min: 40 mg/mL (≈ 20.1 mM)
[4]; Simulated Intestinal Fluid (SIF), Simulated Intestinal Fluid pH 6.8, 10 minutes on shaker, supernatant by HPLC, read-out: solubility in SIF
  solubility at 10 min: < 0.8 mg/mL
[5]
  peak area as percentage with respect to the time zero sample: no significant reduction

## Deoxyactagardine B (1,9-diaminononane) monocarboxamide [Compound 7]
C. diff strain 027Can; listed as Comp 7
  MIC: 0.5 µg/mL

## deoxyactagardine B [DAB]
C. diff strain 37779
  MIC: 4 µg/mL
C. diff strain 19126
  MIC: 4 µg/mL
C. diff strain B32
  MIC: 2 µg/mL
C. diff strain E16
  MIC: 2 µg/mL
C. diff strain P24
  MIC: 2 µg/mL
C. diff strain 027SM
  MIC: 2 µg/mL
C. diff strain P62
  MIC: 2 µg/mL
C. diff strain E101
  MIC: 2 µg/mL
C. diff strain 027Can
  MIC: 4 µg/mL
C. diff strain E4
  MIC: 2 µg/mL
C. diff strain P49
  MIC: 2 µg/mL
C. diff strain P59
  MIC: 2 µg/mL
C. diff strain 630
  MIC: 4 µg/mL
